According to patent US12187742B2 (XRAD Therapeutics, Inc., priority 2018, dated 2025):

Tests used:
ATM = ATM (Homo sapiens (Human), UniProt Q13315); test: ATM in Cell Western Assay (pKAP1 in etoposide-treated MCF-7 cells); assay type: cell-based; conditions: MCF-7 cells, etoposide 100 μM, 1 hr, pKAP1 readout
Method in brief: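 Cells received compounds in a 10-dose, 3-fold series from a 1 μM final top concentration, then 100 μM etoposide, for 1 hr at 37° C. They were then fixed with paraformaldehyde and permeabilized with 0.1% Triton X-100. After immunostaining, plates were scanned on an infrared imager.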

DNA-PK = DNA-PK (Homo sapiens (Human), UniProt P78527); test: DNA-PK Enzyme-Linked Immunosorbent Assay (phosphorylation of GST-p53 (1-101) peptide); assay type: biochemical; conditions: ELISA, ATP 20 μM
Protocol: Assay of Compounds ATM and DNA-PK Inhibition
remove wash solution, turn plate upside down onto a thin paper towel and centrifuge at 1000 rpm for 1 min to absorb all wash buffer. Clean the bottom of plate with moist lint free paper. Scan plate immediately using ODYSSEY CLx (LI-COR) for the best results. DNA-PK Enzyme-Linked Immunosorbent Assay:
On day one, coat 96-well plate (ThermoFisher. Cat #: 442404) with GST-p53 (1-101) peptide (purified by Pharmaron, BCS department) by diluting 3 μg of GST-p53 each well with 0.1 M Na2CO3/NaHCO3, pH 9.6. Incubate the plate overnight at 4° C. The second day, remove coating buffer, wash 2× with PBST (1×PBS containing 0.1% Tween-20). Then add DNA-PK enzyme solution (Invitrogen, #PR9107A; the final DNA-PK concentration is 0.1 μg/mL), series dilution compounds (the final top concentration is 100 nM, 3 fold series dilution, with total 10 doses) and ATP solution (the final ATP concentration is 20 μM) to the 96-well plate. Incubate the plate at 25° C. for 1 hour. Then wash 3× with PBST (1×PBS containing 0.1% Tween-20). Block the plate with PBST+ 1% BSA at 4° C. overnight. The third day, wash 4× with PBST (1×PBS containing 0.1% Tween-20). Then add Phospho-p53 primary antibody (cell signaling Technology, #9286, Phospho-p53 (Ser15) (16G8) Mouse mAb) (1/1000) to each well. Seal with plate and incubate the plate for 1 h at 37° C. Wash 4× with PBST (1×PBS containing 0.1% Tween-20), add 100 μL of HRP-linked secondary antibody (Cell signaling Technology, #7076, Anti-mouse IgG, HRP-linked Antibody) (1/1000) to each well. Seal with tape and incubate the plate for 30 min at 37° C. Wash 4× with PBST (1×PBS containing 0.1% Tween-20), add 100 μL of TMB (Cell signaling Technology, #7004) substrate to each well. Seal with tape and incubate the plate for 10 min at 37° C. Then add 100 μL of Stop solution (Cell signaling Technology, #7002) to each well. Read the plate at 450 nm to detect absorption.

ATM, sequence (Q13315 whole entry): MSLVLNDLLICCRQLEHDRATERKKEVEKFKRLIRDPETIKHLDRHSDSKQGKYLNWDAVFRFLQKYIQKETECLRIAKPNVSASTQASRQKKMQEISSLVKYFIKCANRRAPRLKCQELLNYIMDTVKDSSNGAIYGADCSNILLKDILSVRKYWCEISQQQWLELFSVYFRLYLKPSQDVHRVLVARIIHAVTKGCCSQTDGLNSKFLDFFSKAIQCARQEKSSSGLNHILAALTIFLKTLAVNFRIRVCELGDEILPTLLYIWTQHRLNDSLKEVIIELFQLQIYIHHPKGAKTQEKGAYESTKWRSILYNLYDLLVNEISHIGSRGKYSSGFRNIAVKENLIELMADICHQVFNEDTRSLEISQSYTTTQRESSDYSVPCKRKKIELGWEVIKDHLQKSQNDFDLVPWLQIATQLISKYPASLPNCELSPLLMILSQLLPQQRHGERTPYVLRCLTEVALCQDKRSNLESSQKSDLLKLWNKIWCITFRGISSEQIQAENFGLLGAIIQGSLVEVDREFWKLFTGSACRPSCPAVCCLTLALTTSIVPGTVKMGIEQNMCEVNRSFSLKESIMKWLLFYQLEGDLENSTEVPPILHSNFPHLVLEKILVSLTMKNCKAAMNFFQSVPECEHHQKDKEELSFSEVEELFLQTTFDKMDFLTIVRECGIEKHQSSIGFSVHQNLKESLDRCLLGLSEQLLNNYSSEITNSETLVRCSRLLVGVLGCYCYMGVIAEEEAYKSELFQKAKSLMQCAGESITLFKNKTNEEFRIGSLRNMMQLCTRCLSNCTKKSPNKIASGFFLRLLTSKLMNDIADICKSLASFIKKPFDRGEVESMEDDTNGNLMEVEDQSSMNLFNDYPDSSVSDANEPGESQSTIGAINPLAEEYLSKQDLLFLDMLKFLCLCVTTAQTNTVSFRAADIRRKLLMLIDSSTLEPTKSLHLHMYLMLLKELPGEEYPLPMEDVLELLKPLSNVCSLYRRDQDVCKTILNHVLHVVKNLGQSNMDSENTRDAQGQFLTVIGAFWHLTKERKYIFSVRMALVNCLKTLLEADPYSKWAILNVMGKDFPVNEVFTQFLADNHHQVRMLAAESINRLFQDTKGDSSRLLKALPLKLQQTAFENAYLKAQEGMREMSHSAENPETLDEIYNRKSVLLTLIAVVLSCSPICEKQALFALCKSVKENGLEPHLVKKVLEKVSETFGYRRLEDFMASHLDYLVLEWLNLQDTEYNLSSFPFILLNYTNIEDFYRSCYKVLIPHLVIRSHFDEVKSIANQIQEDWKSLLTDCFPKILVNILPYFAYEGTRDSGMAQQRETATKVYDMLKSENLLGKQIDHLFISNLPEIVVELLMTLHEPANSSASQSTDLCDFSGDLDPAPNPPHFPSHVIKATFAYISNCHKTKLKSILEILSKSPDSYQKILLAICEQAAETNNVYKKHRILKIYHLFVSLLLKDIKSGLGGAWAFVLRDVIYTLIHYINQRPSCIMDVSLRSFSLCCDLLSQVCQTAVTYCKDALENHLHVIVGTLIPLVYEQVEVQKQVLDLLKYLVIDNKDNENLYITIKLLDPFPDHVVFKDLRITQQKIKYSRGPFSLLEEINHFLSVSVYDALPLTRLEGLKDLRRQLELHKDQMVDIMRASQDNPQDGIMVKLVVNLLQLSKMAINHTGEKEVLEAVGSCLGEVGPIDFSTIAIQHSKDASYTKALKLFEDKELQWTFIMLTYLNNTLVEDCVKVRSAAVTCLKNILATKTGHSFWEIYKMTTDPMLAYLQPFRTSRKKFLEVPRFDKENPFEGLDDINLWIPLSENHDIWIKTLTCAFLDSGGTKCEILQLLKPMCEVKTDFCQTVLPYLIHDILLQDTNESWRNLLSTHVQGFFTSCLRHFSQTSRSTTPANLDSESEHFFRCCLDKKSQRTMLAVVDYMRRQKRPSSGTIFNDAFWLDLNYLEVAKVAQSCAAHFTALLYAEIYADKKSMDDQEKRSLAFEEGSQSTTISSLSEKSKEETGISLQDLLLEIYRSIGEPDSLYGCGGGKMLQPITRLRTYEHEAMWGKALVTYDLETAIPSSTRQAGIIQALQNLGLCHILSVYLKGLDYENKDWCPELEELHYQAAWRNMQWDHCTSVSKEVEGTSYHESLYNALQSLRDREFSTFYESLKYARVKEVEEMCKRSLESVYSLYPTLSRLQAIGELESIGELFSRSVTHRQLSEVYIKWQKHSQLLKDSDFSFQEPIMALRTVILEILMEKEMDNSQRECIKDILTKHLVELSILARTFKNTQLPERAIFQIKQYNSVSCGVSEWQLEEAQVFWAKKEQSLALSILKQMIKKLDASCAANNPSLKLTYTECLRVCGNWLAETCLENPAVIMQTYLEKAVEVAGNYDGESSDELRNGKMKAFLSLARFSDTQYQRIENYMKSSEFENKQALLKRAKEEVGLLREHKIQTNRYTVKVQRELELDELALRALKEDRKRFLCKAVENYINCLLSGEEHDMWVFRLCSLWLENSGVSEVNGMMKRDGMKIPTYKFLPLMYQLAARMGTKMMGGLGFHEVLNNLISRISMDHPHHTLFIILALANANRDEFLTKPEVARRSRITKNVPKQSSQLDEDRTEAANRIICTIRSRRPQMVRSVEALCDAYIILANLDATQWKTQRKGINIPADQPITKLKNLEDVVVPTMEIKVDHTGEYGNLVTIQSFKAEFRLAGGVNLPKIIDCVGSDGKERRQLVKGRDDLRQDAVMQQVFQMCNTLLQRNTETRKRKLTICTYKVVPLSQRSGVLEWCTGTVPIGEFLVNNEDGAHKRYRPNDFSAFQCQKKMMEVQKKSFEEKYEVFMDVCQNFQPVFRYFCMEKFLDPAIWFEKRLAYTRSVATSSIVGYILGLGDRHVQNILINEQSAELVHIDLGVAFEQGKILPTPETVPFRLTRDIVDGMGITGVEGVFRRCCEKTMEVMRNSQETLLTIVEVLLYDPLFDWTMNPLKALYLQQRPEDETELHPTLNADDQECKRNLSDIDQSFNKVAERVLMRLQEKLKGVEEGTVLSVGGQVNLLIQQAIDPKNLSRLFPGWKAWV

SMILES	IC50 (ATM)	IC50 (DNA-PK)
COc1ncc(-c2ccc3ncc4c(c3c2)C2(CC2)C(=O)N4C)cc1NS(=O)(=O)c1cccc(C(C)=O)c1 [Example 13, 3-Acetyl-N-(2-methoxy-5-(3′-methyl-2′-oxo-2′,3′-dihydrospiro [cyclopropane-1,1′-pyrrolo[2,3-c]quinolin]-8′-yl)pyridin-3-yl)benzenesulfonamide]	1 to 100 nM	< 0.5 nM
CN1C(=O)C2(CC2)c2c1cnc1ccc(-c3cnc(Cl)c(NS(=O)(=O)c4ccccc4)c3)cc21 [Example 15, N-(2-Chloro-5-(3′-methyl-2′-oxo-2′,3′-dihydrospiro[cyclopropane-1,1′-pyrrolo[2,3-c]quinolin]-8′-yl)pyridin-3-yl)benzenesulfonamide]	1 to 100 nM	< 0.5 nM
CN1C(=O)C2(CC2)c2c1cnc1ccc(-c3ccc4ncccc4c3)cc21 [Example 22, 3′-Methyl-8′-(quinolin-6-yl)spiro[cyclopropane-1,1′-pyrrolo[2,3-c]quinolin]-2′(3′-H)-one]	1 to 100 nM	1 to 100 nM
Cc1ncc(-c2ccc3ncc4c(c3c2)C2(CC2)C(=O)N4C)cc1NS(=O)(=O)c1ccccc1 [Example 24, N-(2-Methyl-5-(3′-methyl-2′-oxo-2′,3′-dihydrospiro[cyclopropane-1,1′-pyrrolo[2,3-c]quinolin]-8′-yl)pyridin-3-yl)benzenesulfonamide]	1 to 100 nM	< 0.5 nM
CN(C)CCCOc1ncc(-c2ccc3ncc4c(c3c2)C2(CCOCC2)C(=O)N4C)cc1NS(=O)(=O)c1ccccc1 [Example 33, N-(2-(3-(Dimethylamino)propoxy)-5-(3′-methyl-2′-oxo-2,2′,3′-,3′-,5,6-hexahydrospiro[pyran-4,1′-pyrrolo[2,3-c]quinolin]-8′-yl)pyridin-3-yl)benzenesulfonamide]	1 to 100 nM	1 to 100 nM
CN(C)CCCCOc1ncc(-c2ccc3ncc4c(c3c2)C2(CC2)C(=O)N4C)cc1NS(=O)(=O)c1ccccc1 [Example 35, N-(2-(4-(Dimethylamino)butoxy)-5-(3′-methyl-2′-oxo-2′,3′-dihydrospiro [cyclopropane-1,1′-pyrrolo[2,3-c]quinolin]-8′-yl)pyridin-3-yl)benzenesulfonamide]	1 to 100 nM	0.5 to 1 nM
CCN1C(=O)C2(CC2)c2c1cnc1ccc(-c3cnc(OCCCN(C)C)c(NS(=O)(=O)c4ccccc4)c3)cc21 [Example 42, N-(2-(3-(Dimethylamino)propoxy)-5-(3′-ethyl-2′-oxo-2′,3′-dihydrospiro [cyclopropane-1,1′-pyrrolo[2,3-c]quinolin]-8′-yl)pyridin-3-yl)benzenesulfonamide]	1 to 100 nM	0.5 to 1 nM
CC(C#N)c1cccc(S(=O)(=O)Nc2cc(-c3ccc4ncc5c(c4c3)C3(CC3)C(=O)N5C)cnc2OCCCN(C)C)c1 (stereo not drawn) [Example 46, 3-(1-Cyanoethyl))-N-((2-(3-(Dimethylamino)propoxy)-5-(3′-methyl-2′-oxo-2′,3′-dihydrospiro [cyclopropane-1,1′-pyrrolo[2,3-c]quinolin]-8′-yl)pyridin-3-yl)benzenesulfonamide]	1 to 100 nM	< 0.5 nM
CN(C)CCCOc1ncc(-c2ccc3ncc4c(c3c2)C2(COC2)C(=O)N4C)cc1NS(=O)(=O)C1CC1 [Example 47, N-(2-(3-(Dimethylamino)propoxy)-5-(3′-methyl-2′-oxo-2′,3′-dihydrospiro [oxetane-3,1′-pyrrolo[2,3-c]quinolin]-8′-yl)pyridin-3-yl)cyclopropanesulfonamide]	1 to 100 nM	1 to 100 nM
CN1CCN(c2ncc(-c3ccc4ncc5c(c4c3)C3(CC3)C(=O)N5C)cc2NS(=O)(=O)c2ccccc2)CC1 [Example 49, N-(5-(3′-Methyl-2′-oxo-2′,3′-dihydrospiro[cyclopropane-1,1′-pyrrolo[2,3-c]quinolin]-8′-yl)-2-(4-methylpiperazin-1-yl)pyridin-3-yl)benzenesulfonamide]	0.5 to 1 nM	< 0.5 nM

Results, then the molecule that gave them:

IC50 (ATM)	IC50 (DNA-PK)	SMILES
1 to 100 nM	< 0.5 nM	COc1ncc(-c2ccc3ncc4c(c3c2)C2(CC2)C(=O)N4C)cc1NS(=O)(=O)c1ccc([N+](=O)[O-])cc1 [Example 12, N-(2-Methoxy-5-(3′-methyl-2′-oxo-2′,3′-dihydrospiro [cyclopropane-1,1′-pyrrolo[2,3-c]quinolin]-8′-yl)pyridin-3-yl)-4-nitrobenzenesulfonamide]
1 to 100 nM	< 0.5 nM	COc1ncc(-c2ccc3ncc4c(c3c2)C2(CC2)C(=O)N4C)cc1NS(=O)(=O)c1ccccc1 [Example 14, N-(2-Methoxy-5-(3′-methyl-2′-oxo-2′,3′-dihydrospiro [cyclopropane-1,1′-pyrrolo[2,3-c]quinolin]-8′-yl)pyridin-3-yl)benzenesulfonamide]
1 to 100 nM	< 0.5 nM	COc1ncc(-c2ccc3ncc4c(c3c2)C2(CC2)C(=O)N4)cc1NS(=O)(=O)c1ccccc1 [Example 19, N-(2-Methoxy-5-(2′-oxo-2′,3′-dihydrospiro [cyclopropane-1,1′-pyrrolo[2,3-c]quinolin]-8′-yl)pyridin-3-yl) benzenesulfonamide]
1 to 100 nM	< 0.5 nM	COc1ncc(-c2ccc3ncc4c(c3c2)C2(CC2)C(=O)N4CC#N)cc1NS(=O)(=O)c1ccccc1 [Example 21, N-(5-(3′-(Cyanomethyl)-2′-oxo-2′,3′-dihydrospiro[cyclopropane-1,1′-pyrrolo[2,3-c]quinolin]-8′-yl)-2-methoxypyridin-3-yl)benzenesulfonamide]
1 to 100 nM	1 to 100 nM	CN(C)CCCOc1ncc(-c2ccc3ncc4c(c3c2)C2(CC2)C(=O)N4C)cc1NS(=O)(=O)C1CC1 [Example 29, N-(2-(3-(Dimethylamino)propoxy)-5-(3′-methyl-2′-oxo-2′,3′-dibydrospiro [cyclopropane-1,1′-pyrrolo[2,3-c]quinolin]-8′-yl)pyridin-3-yl) cyclopropanesulfonamide]
1 to 100 nM	1 to 100 nM	CN(C)CCCOc1ncc(-c2ccc3ncc4c(c3c2)C2(CC2)C(=O)N4Cc2cn[nH]c2)cc1NS(=O)(=O)c1ccccc1 [Example 30, N-(5-(3′-((1H-Pyrazol-4-yl)methyl)-2′-oxo-2′,3′-dihydrospiro[cyclopropane-1,1′-pyrrolo[2,3-c]quinolin]-8′-yl)-2-(3-(dimethylamino)propoxy)pyridin-3-yl)benzenesulfonamide]
1 to 100 nM	1 to 100 nM	CN(C)CCCOc1ncc(-c2ccc3ncc4c(c3c2)C2(COC2)C(=O)N4C)cc1NS(=O)(=O)c1ccccc1 [Example 32, N-(2-(3-(Dimethylamino)propoxy)-5-(3′-methyl-2′-oxo-2′,3′-dihydrospiro[oxetane-3,1′-pyrrolo[2,3-c]quinolin]-8′-yl)pyridin-3-yl)benzenesulfonamide]
1 to 100 nM	1 to 100 nM	CN(C)CCCOc1ncc(-c2ccc3ncc4c(c3c2)C2(CC2)C(=O)N4CC2COC2)cc1NS(=O)(=O)c1ccccc1 [Example 37, N-(2-(3-(Dimethylamino)propoxy)-5-(3′-(oxetan-3-ylmethyl)-2′-oxo-2′-3′-dihydrospiro [cyclopropane-1,1′-pyrrolo[2,3-c]quinolin]-8′-yl)pyridin-3-yl)benzenesulfonamide]
1 to 100 nM	0.5 to 1 nM	CNCCOc1ncc(-c2ccc3ncc4c(c3c2)C2(CC2)C(=O)N4C)cc1NS(=O)(=O)c1ccccc1 [Example 43, N-(5-(3′-Methyl-2′-oxo-2′,3′-dihydrospiro [cyclopropane-1,1′-pyrrolo[2,3-c]quinolin]-8′-yl)-2-(2-(methylamino)ethoxy)pyridin-3-yl) benzenesulfonamide]
1 to 100 nM	0.5 to 1 nM	CN1C(=O)C2(CC2)c2c1cnc1ccc(-c3cnc(N)nc3)cc21 [Example 48, 8′-(2-Aminopyrimidin-5-yl)-3′-methylspiro [cyclopropane-1,1′-pyrrolo [2,3-c]quinolin]-2′(3′-H)-one]
1 to 100 nM	1 to 100 nM	CN1CCCN(c2ncc(-c3ccc4ncc5c(c4c3)C3(CC3)C(=O)N5C)cc2NS(=O)(=O)c2ccccc2)CC1 [Example 53, N-(2-(4-Methyl-1,4-diazepan-1-yl)-5-(3′-methyl-2′-oxo-2′,3′-dihydrospiro[cyclopropane-1,1′-pyrrolo[2,3-c]quinolin]-8′-yl)pyridin-3-yl)benzenesulfonamide]
